In PMC3537142 (EMBO Reports, 2012):
Where a chain is given by its changes, count along the chain named.

What was measured:
[1] = molecular target: T1, 5HTBP construct D2 (Y53W, Q55R) (Aplysia californica, UniProt Q8WSF8, Q74R/Y72W); test: Competition binding with [3H]granisetron; details: read-out: Granisetron Ki, [3H]granisetron binding
T1 sequence (Q8WSF8 20-236 Y72W/Q74R): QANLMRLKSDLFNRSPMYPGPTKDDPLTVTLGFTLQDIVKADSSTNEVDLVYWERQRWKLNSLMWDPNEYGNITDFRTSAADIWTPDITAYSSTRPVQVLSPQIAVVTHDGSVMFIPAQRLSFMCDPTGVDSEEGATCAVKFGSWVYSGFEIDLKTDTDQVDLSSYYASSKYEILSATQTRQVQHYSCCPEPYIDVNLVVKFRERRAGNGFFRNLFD

[2] = molecular target: T2, 5HTBP construct A1 (S92E) (Aplysia californica, UniProt Q8WSF8, S111E); test: Competition binding with [3H]granisetron; details: read-out: Ki, [3H]granisetron binding; single mutant construct A1 (S92E)
T2 sequence (Q8WSF8 20-236 S111E): T1 sequence (Q8WSF8 20-236 Y72W/Q74R) with W53Y, R55Q, S92E

[3] = molecular target: T3, construct A2NE (Y91N, S92E) (Aplysia californica, UniProt Q8WSF8, S111E/Y110N); test: [3H]granisetron binding to single-loop construct
T3 sequence (Q8WSF8 20-236 Y110N/S111E): T1 sequence (Q8WSF8 20-236 Y72W/Q74R) with W53Y, R55Q, Y91N, S92E

construct C5 = molecular target: T4, construct C5 (Aplysia californica, UniProt Q8WSF8, C207M/C208E/E210S/P209S/P211N); test: [3H]granisetron binding to single-loop construct
T4 sequence (Q8WSF8 20-236 C207M/C208E/P209S/E210S/P211N): T1 sequence (Q8WSF8 20-236 Y72W/Q74R) with W53Y, R55Q, C188M, C189E, P190S, E191S, P192N

construct C6 = molecular target: T5, construct C6 (Aplysia californica, UniProt Q8WSF8, C207E/C208S/E210N/INS206M/P209S/P211Y); test: [3H]granisetron binding to single-loop construct
T5 sequence (Q8WSF8 with tags, fused parts or gaps INS206M/C207E/C208S/P209S/E210N/P211Y): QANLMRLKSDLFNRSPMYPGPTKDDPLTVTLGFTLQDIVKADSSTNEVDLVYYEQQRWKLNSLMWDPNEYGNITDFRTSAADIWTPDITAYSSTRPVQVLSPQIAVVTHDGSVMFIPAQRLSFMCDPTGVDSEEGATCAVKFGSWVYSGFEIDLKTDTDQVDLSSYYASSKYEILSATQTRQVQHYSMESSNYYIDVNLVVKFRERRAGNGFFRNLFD

construct E3 = molecular target: T6, construct E3 (Aplysia californica, UniProt Q8WSF8, I123Y/I135Y/V125Y); test: [3H]granisetron binding to single-loop construct
T6 sequence (Q8WSF8 20-236 I123Y/V125Y/I135Y): T1 sequence (Q8WSF8 20-236 Y72W/Q74R) with W53Y, R55Q, I104Y, V106Y, I116Y

construct E1 = molecular target: T7, construct E1 (Aplysia californica, UniProt Q8WSF8, I135Y); test: [3H]granisetron binding to single-loop construct
T7 sequence (Q8WSF8 20-236 I135Y): T1 sequence (Q8WSF8 20-236 Y72W/Q74R) with W53Y, R55Q, I116Y

5HTBP construct A1 B2 D2 = molecular target: T8, 5HTBP construct A1 B2 D2 (Aplysia californica, UniProt Q8WSF8, K160T/Q74R/S111E/V159L/Y72W); test: Competition binding with [3H]granisetron; details: NB = no binding
T8 sequence (Q8WSF8 20-236 Y72W/Q74R/S111E/V159L/K160T): T1 sequence (Q8WSF8 20-236 Y72W/Q74R) with S92E, V140L, K141T

[4] = molecular target: T9, 5HTBP construct A1 B2 D1W (Aplysia californica, UniProt Q8WSF8, K160T/S111E/V159L/Y72W); test: SPR biosensor assay; details: construct A1B2D1W; stated for both [3H]granisetron binding and SPR
T9 sequence (Q8WSF8 20-236 Y72W/S111E/V159L/K160T): T1 sequence (Q8WSF8 20-236 Y72W/Q74R) with R55Q, S92E, V140L, K141T

AChBPs = details: ref [4], [5]; cited from earlier work

SMILES	Ki [1] [nM]	Ki [2] [nM]	[3H]granisetron binding [3]	[3H]granisetron binding (construct C5)	[3H]granisetron binding (construct C6)	[3H]granisetron binding (construct E3)	[3H]granisetron binding (construct E1)	Granisetron Ki, [3H]granisetron binding (5HTBP construct A1 B2 D2)	increase in the affinity compared with wild-type Ac-AChBP [4] [fold]	lower affinity than acetylcholine (AChBPs) [fold]
CN1C2CCCC1CC(NC(=O)c1nn(C)c3ccccc13)C2 (stereo not shown) [[^3H]granisetron, [3H]BRL-43694]	454 ± 71	270 ± 51	failed to bind	did not show detectable [^3H]granisetron binding	did not show detectable [^3H]granisetron binding	no detectable [^3H]granisetron binding	no detectable [^3H]granisetron binding	no longer bound		
NCCc1c[nH]c2ccc(O)cc12 [Serotonin, 5-hydroxytryptamine]									~40	~60
